PubChem BioAssay AID248 (DTP/NCI, 2004)
Inconclusive results and toxic doses are left out. No stated cut-off is given here; in the data, active means T/C of 150% or more; inactive means T/C below 125%.

Tested on: L1210 leukemia ip in BDF1 mice, survival T/C
Assay: NCI In Vivo Anticancer Drug Screen. Data for tumor model L1210 Leukemia (intraperitoneal) in B6D2F1 (BDF1) mice
Details: endpoint: mean survival time, higher = longer survival
In short: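 Survival endpoint. Drug-treated group vs vehicle group, expressed as T divided by C. Tumor passaged by transplantation.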

[1] = dose: 100.0 mg/kg/injection, schedule: Q04DX003 (ip), vehicle: Klucel (hydroxypropylcellulose) (HPC)
[2] = dose: 100.0 mg/kg/injection, schedule: Q01DX009 (ip), vehicle: saline
[3] = dose: 200.0 mg/kg/injection, schedule: Q04DX003 (ip), vehicle: Klucel (hydroxypropylcellulose) (HPC)
[4] = dose: 400.0 mg/kg/injection, schedule: Q04DX003 (ip), vehicle: Klucel (hydroxypropylcellulose) (HPC)
[5] = dose: 100.0 mg/kg/injection, schedule: Q01DX009 (ip), vehicle: Klucel (hydroxypropylcellulose) (HPC)
[6] = dose: 50.0 mg/kg/injection, schedule: Q01DX009 (ip), vehicle: saline with Tween-80
[7] = dose: 100.0 mg/kg/injection, schedule: Q01DX009 (ip), vehicle: saline with Tween-80
[8] = dose: 100.0 mg/kg/injection, schedule: Q01DX001 (ip), vehicle: other

Measured: T/C

[Cl][Cu][Cl]
inactive: dose: 3.13 mg/kg/injection, schedule: Q01DX009 (ip), vehicle: saline 100 % of control | dose: 6.25 mg/kg/injection, schedule: Q01DX009 (ip), vehicle: saline 95 % of control | dose: 6.25 mg/kg/injection, schedule: Q04DX003 (ip), vehicle: saline 102 % of control | dose: 12.5 mg/kg/injection, schedule: Q01DX009 (ip), vehicle: saline 90 % of control | dose: 12.5 mg/kg/injection, schedule: Q04DX003 (ip), vehicle: saline 107 % of control

C[N+](C)(C)C1=CC=CC=C1.Br[Br-]Br
inactive: dose: 12.5 mg/kg/injection, schedule: Q01DX009 (ip), vehicle: other 98 % of control | dose: 12.5 mg/kg/injection, schedule: Q04DX003 (ip), vehicle: Klucel (hydroxypropylcellulose) (HPC) 102 % of control | dose: 25.0 mg/kg/injection, schedule: Q01DX009 (ip), vehicle: other 98 % of control | dose: 25.0 mg/kg/injection, schedule: Q01DX009 (ip), vehicle: saline 104 % of control | dose: 25.0 mg/kg/injection, schedule: Q04DX003 (ip), vehicle: Klucel (hydroxypropylcellulose) (HPC) 102 % of control | dose: 50.0 mg/kg/injection, schedule: Q01DX009 (ip), vehicle: other 95 % of control | dose: 50.0 mg/kg/injection, schedule: Q01DX009 (ip), vehicle: saline 105 % of control | dose: 50.0 mg/kg/injection, schedule: Q04DX003 (ip), vehicle: Klucel (hydroxypropylcellulose) (HPC) 101 % of control | dose: 100.0 mg/kg/injection, schedule: Q01DX001 (ip), vehicle: Klucel (hydroxypropylcellulose) (HPC) 101 % of control | [1] 104 % of control

Cc1ccc(NN)c(Br)c1
inactive: dose: 100.0 mg/kg/injection, schedule: Q04DX003 (ip), vehicle: saline 104 % of control | dose: 200.0 mg/kg/injection, schedule: Q04DX003 (ip), vehicle: saline 106 % of control | dose: 400.0 mg/kg/injection, schedule: Q04DX003 (ip), vehicle: saline 101 % of control

CN(C)NCCC#N
inactive: dose: 66.0 mg/kg/injection, schedule: Q01DX009 (ip), vehicle: saline 118 % of control | dose: 75.0 mg/kg/injection, schedule: Q01DX009 (ip), vehicle: saline 116 % of control | dose: 100.0 mg/kg/injection, schedule: Q01DX009 (ip), vehicle: saline sonified 98 % of control | [2] 116 % of control | dose: 200.0 mg/kg/injection, schedule: Q01DX009 (ip), vehicle: saline sonified 111 % of control

Nc1nc(N)c(CCCOc2ccc(NC(=O)CCCc3ccc(NC(=O)CBr)cc3)cc2)c(N)n1
inactive: [1] 102 % of control | [3] 109 % of control | [4] 102 % of control

O=S1Oc2ccccc2O1
inactive: dose: 75.0 mg/kg/injection, schedule: Q01DX001 (ip), vehicle: saline 117 % of control | dose: 150.0 mg/kg/injection, schedule: Q01DX001 (ip), vehicle: saline 103 % of control

CN(C)c1ccc(/C(=C(\c2ccccc2)c2ccc(N(C)C)cc2)c2ccccc2)cc1
inactive: [1] 90 % of control | [3] 93 % of control | [4] 89 % of control

CCCC1=NNC(=O)C1(Br)Br
inactive: dose: 10.0 mg/kg/injection, schedule: Q01DX001 (ip), vehicle: carboxymethylcellulose (CMC) 97 % of control | dose: 20.0 mg/kg/injection, schedule: Q01DX001 (ip), vehicle: carboxymethylcellulose (CMC) 91 % of control | dose: 40.0 mg/kg/injection, schedule: Q01DX001 (ip), vehicle: carboxymethylcellulose (CMC) 92 % of control | dose: 80.0 mg/kg/injection, schedule: Q01DX001 (ip), vehicle: carboxymethylcellulose (CMC) 97 % of control

Cc1ccc(N=NNc2ccc(C)cc2)cc1
inactive: dose: 25.0 mg/kg/injection, schedule: Q01DX009 (ip), vehicle: Klucel (hydroxypropylcellulose) (HPC) 96 % of control | dose: 50.0 mg/kg/injection, schedule: Q01DX009 (ip), vehicle: Klucel (hydroxypropylcellulose) (HPC) 97 % of control | dose: 75.0 mg/kg/injection, schedule: Q04DX003 (ip), vehicle: Klucel (hydroxypropylcellulose) (HPC) 100 % of control | [5] 97 % of control | dose: 150.0 mg/kg/injection, schedule: Q04DX003 (ip), vehicle: Klucel (hydroxypropylcellulose) (HPC) 100 % of control | dose: 300.0 mg/kg/injection, schedule: Q04DX003 (ip), vehicle: Klucel (hydroxypropylcellulose) (HPC) 100 % of control

CCNC(C)(C)C(S)c1ccc(Cl)s1 (stereo not drawn)
inactive: [6] 106 % of control | [7] 114 % of control | dose: 100.0 mg/kg/injection, schedule: Q04DX003 (ip), vehicle: saline with Tween-80 103 % of control | dose: 200.0 mg/kg/injection, schedule: Q04DX003 (ip), vehicle: saline with Tween-80 94 % of control

O=[N+]([O-])c1ccc(/C=N\N=C\c2ccc([N+](=O)[O-])cc2)cc1
inactive: [8] 104 % of control | dose: 200.0 mg/kg/injection, schedule: Q01DX001 (ip), vehicle: other 104 % of control | dose: 400.0 mg/kg/injection, schedule: Q01DX001 (ip), vehicle: other 104 % of control

c1cc[c]([Sn]([S]c2ncnc3c2nc[n]3[Sn]([c]2ccccc2)([c]2ccccc2)[c]2ccccc2)([c]2ccccc2)[c]2ccccc2)cc1.c1cc[c]([Sn]([S]c2ncnc3nc[nH]c23)([c]2ccccc2)[c]2ccccc2)cc1
inactive: dose: 5.0 mg/kg/injection, schedule: Q01DX001 (ip), vehicle: other 122 % of control | dose: 10.0 mg/kg/injection, schedule: Q01DX001 (ip), vehicle: other 100 % of control | dose: 20.0 mg/kg/injection, schedule: Q01DX001 (ip), vehicle: other 100 % of control

COC(=O)CC(O)(CC(=O)OC)C(=O)OC
inactive: [5] 93 % of control | dose: 200.0 mg/kg/injection, schedule: Q01DX009 (ip), vehicle: Klucel (hydroxypropylcellulose) (HPC) 104 % of control | dose: 400.0 mg/kg/injection, schedule: Q01DX009 (ip), vehicle: Klucel (hydroxypropylcellulose) (HPC) 93 % of control

Nc1nc(N)c(CCCCc2ccccc2)c(/C=C/c2ccc([N+](=O)[O-])cc2)n1
inactive: dose: 100.0 mg/kg/injection, schedule: Q01DX001 (ip), vehicle: gum acacia 92 % of control | dose: 200.0 mg/kg/injection, schedule: Q01DX001 (ip), vehicle: gum acacia 94 % of control | dose: 400.0 mg/kg/injection, schedule: Q01DX001 (ip), vehicle: gum acacia 95 % of control

CC12CCC3(CCC4(C)C(=C3C1)CCC1C3(C)CCC(OC5OC(CO)C(O)C(O)C5O)C(C)(C)C3CCC14C)C(=O)O2 (stereo not drawn)
inactive: [6] 104 % of control | [7] 108 % of control | dose: 200.0 mg/kg/injection, schedule: Q01DX009 (ip), vehicle: saline with Tween-80 114 % of control

Nc1ncc(C(=O)O)c(N)n1
inactive: dose: 12.5 mg/kg/injection, schedule: Q01DX001 (ip), vehicle: other 101 % of control | dose: 12.5 mg/kg/injection, schedule: Q01DX009 (ip), vehicle: saline with Tween-80 110 % of control | dose: 12.5 mg/kg/injection, schedule: Q04DX003 (ip), vehicle: saline with Tween-80 101 % of control | dose: 25.0 mg/kg/injection, schedule: Q01DX001 (ip), vehicle: other 97 % of control | dose: 25.0 mg/kg/injection, schedule: Q01DX009 (ip), vehicle: saline with Tween-80 107 % of control | dose: 25.0 mg/kg/injection, schedule: Q04DX003 (ip), vehicle: saline with Tween-80 104 % of control | dose: 50.0 mg/kg/injection, schedule: Q01DX001 (ip), vehicle: other 101 % of control | [6] 102 % of control | dose: 50.0 mg/kg/injection, schedule: Q04DX003 (ip), vehicle: saline with Tween-80 108 % of control | [8] 103 % of control

CCOC(=O)CC1(C)NC(=O)NC1=O (stereo not drawn)
inactive: [2] 104 % of control | dose: 200.0 mg/kg/injection, schedule: Q01DX009 (ip), vehicle: saline 90 % of control | dose: 400.0 mg/kg/injection, schedule: Q01DX009 (ip), vehicle: saline 98 % of control
